Experiment: Zeta potential of emulsion surface
Format: physicochemical
Settings: 0.002% CKC in emulsion
From the text: Thus in preferred embodiments, micellar compositions of the present invention have a positive zeta potential. As known in the art, the zeta potential is a measure of the magnitude of repulsion or attraction between particles (Washington, Adv. Drug Deliv. Reviews, 1996, 20:131-145). The Zeta potential is not measurable directly but it can be calculated using theoretical models and an experimentally-determined electrophoretic mobility or dynamic electrophoretic mobility. As known in the art, electrophoretic mobility can be determined using micro-electrophoresis or electrophoretic light scattering.
All the eye drops were supplied by Novagali Pharma (Evry, France) and were sterile with physiological pH and osmolality. The present Applicants chose to compare 0.02% BAK to 0.002% CKC since these two QAC concentrations confer equivalent positive charge to the emulsion surface (zeta potential around 20 mV).

zeta potential: around 20 mV
Structure (SMILES): CCCCCCCCCCCCCCCC[N+](C)(C)Cc1ccccc1 [Cetalkonium chloride, cetalkonium chloride]
